Laboratory results published in patent publication US20260306527A1, “PRMT INHIBITOR COMPOUNDS AND THE USES THEREOF” (Purdue Research Foundation, priority 2023, published 2026).

Molecular target: T1, PRMT1 (Homo sapiens, UniProt Q99873)
T1 construct: made in house
Assay: SAHH-coupled fluorescence assay, inhibition of PRMT1
Assay type: biochemical
Experimental: (§1) A fluorescence-based SAHH-coupled assay was applied to study the inhibition activity of all synthesized compounds on PRMT 1 and 3.
(§2) The PRMT1 methylation assay was performed under the following conditions in a final well volume of 100 μL: 2.5 mM HEPES (pH=7.0), 25 mM NaCl, 25 μM EDTA, 50 μM TCEP, 0.01% Triton X-100, 5 μM SAHH, 0.1 μM PRMT1, 10 μM AdoMet, and 10 μM ThioGlo4. […] The fluorescence signal was monitored on a BMG CLARIOstar microplate reader with excitation at 400 nm and emission at 465 nm for 15 min. Data were processed using GraphPad Prism software 8.0.
(§3) Next, the inhibition activity of the library was investigated for five PRMT members from type I PRMTs.
as §2, with “A fluorescence-based SAHH-coupled assay was applied to determine the inhibition activity of all synthesized compounds on PRMT 1 and 3. The PRMT1” for “The PRMT1”, “software 8.0. All experiments were performed in duplicate.” for “software 8.0.”

T1 sequence (Q99873 whole entry, species assumed): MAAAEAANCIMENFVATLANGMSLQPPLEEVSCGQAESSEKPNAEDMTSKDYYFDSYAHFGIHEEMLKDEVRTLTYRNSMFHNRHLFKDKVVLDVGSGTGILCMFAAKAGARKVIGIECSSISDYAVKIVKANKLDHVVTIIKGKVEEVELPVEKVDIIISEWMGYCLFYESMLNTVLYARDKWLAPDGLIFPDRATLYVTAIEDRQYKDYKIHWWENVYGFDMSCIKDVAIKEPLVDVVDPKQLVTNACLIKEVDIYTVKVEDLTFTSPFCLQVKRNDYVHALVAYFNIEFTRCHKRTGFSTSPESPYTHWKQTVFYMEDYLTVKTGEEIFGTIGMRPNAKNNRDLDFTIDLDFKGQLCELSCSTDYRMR

Question: With `Nc1ncnc2c1ncn2[C@@H]1O[C@H](CSCCOc2ccc(-c3ccc(F)c(O)c3)cc2)[C@@H](O)[C@H]1O` [Compound 14d] as the compound, how does the inhibition at 10 µM read?
Answer: 16%

Question: Which inhibition at 10 µM does the source give for `Nc1ncnc2c1ncn2[C@@H]1O[C@H](CSCCOc2ccc(-c3cncnc3)cc2)[C@@H](O)[C@H]1O` [Compound 14e] here?
Answer: 7%

Question: `Nc1ncnc2c1ncn2[C@@H]1O[C@H](CSCCOc2ccc(-c3cccc(O)c3)cc2)[C@@H](O)[C@H]1O` [Compound 14f] was tested. Which inhibition at 10 µM did it give?
Answer: 5%

Question: With `Nc1ncnc2c1ncn2[C@@H]1O[C@H](CSCCOc2ccc(-c3ccccc3O)cc2)[C@@H](O)[C@H]1O` [Compound 14g] as the compound, how does the inhibition at 10 µM read?
Answer: 5%

Question: With `Nc1ncnc2c1ncn2[C@@H]1O[C@H](CSCCOc2ccc(-c3ccncc3)cc2)[C@@H](O)[C@H]1O` [Compound 14h] as the compound, how does the inhibition at 10 µM read?
Answer: 10%

Molecular target: T2, PRMT4 (Homo sapiens, UniProt Q86X55)
T2 sequence (Q86X55 1-608): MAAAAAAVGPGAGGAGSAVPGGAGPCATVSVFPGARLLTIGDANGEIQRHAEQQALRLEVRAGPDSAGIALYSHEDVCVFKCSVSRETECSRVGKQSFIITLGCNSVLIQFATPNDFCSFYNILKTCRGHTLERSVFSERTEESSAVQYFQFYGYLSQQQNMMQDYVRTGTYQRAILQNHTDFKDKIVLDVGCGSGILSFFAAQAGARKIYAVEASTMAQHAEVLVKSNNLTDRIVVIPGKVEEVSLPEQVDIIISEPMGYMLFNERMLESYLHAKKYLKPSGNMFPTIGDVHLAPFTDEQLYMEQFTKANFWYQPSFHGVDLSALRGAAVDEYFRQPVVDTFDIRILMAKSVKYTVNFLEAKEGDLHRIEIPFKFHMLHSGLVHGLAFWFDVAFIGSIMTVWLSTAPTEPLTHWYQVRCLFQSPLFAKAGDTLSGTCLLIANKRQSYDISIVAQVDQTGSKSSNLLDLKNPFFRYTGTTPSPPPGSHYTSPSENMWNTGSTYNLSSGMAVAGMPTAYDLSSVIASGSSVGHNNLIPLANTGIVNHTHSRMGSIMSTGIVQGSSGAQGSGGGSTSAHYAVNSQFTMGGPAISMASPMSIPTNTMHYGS
Assay: radioactive assay (Reaction Biology Corp.), inhibition of PRMT4
Assay type: biochemical
Experimental: as §3
(§4) The PRMT 4, 6 and 8 methylation assays were performed by Reaction Biology corp.

Question: Which inhibition at 10 µM does the source give for `Nc1ncnc2c1ncn2[C@@H]1O[C@H](CSCCOc2ccc(-c3ccc(F)c(O)c3)cc2)[C@@H](O)[C@H]1O` [Compound 14d] here?
Answer: 51%

Question: With `Nc1ncnc2c1ncn2[C@@H]1O[C@H](CSCCOc2ccc(-c3cncnc3)cc2)[C@@H](O)[C@H]1O` [Compound 14e] as the compound, how does the inhibition at 10 µM read?
Answer: 22%

Question: With `Nc1ncnc2c1ncn2[C@@H]1O[C@H](CSCCOc2ccc(-c3cccc(O)c3)cc2)[C@@H](O)[C@H]1O` [Compound 14f] as the compound, how does the inhibition at 10 µM read?
Answer: 62%

Question: For `Nc1ncnc2c1ncn2[C@@H]1O[C@H](CSCCOc2ccc(-c3ccccc3O)cc2)[C@@H](O)[C@H]1O` [Compound 14g], which inhibition at 10 µM is on record?
Answer: 35%

Question: Which inhibition at 10 µM does the source give for `Nc1ncnc2c1ncn2[C@@H]1O[C@H](CSCCOc2ccc(-c3ccncc3)cc2)[C@@H](O)[C@H]1O` [Compound 14h] here?
Answer: 48%

Molecular target: PRMT6 (Homo sapiens, UniProt Q96LA8)
Sequence (Q96LA8 whole entry, species assumed): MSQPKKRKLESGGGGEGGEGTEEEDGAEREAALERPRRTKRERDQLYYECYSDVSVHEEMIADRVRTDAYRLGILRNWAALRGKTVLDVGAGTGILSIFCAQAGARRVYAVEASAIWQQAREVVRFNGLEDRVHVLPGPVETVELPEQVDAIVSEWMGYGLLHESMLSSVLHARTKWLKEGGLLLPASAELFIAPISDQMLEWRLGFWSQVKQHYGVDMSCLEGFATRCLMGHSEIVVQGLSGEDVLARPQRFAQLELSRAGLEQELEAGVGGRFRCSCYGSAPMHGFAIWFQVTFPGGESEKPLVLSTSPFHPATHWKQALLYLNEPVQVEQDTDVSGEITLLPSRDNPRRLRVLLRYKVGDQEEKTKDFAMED
Assay: radioactive assay (Reaction Biology Corp.), inhibition of PRMT6
Assay type: biochemical
Experimental: as §3, §4

Question: How did the inhibition at 10 µM turn out when `Nc1ncnc2c1ncn2[C@@H]1O[C@H](CSCCOc2ccc(-c3ccc(F)c(O)c3)cc2)[C@@H](O)[C@H]1O` [Compound 14d] was run?
Answer: 18%

Question: How did the inhibition at 10 µM turn out when `Nc1ncnc2c1ncn2[C@@H]1O[C@H](CSCCOc2ccc(-c3cncnc3)cc2)[C@@H](O)[C@H]1O` [Compound 14e] was run?
Answer: 7%

Question: Which inhibition at 10 µM does the source give for `Nc1ncnc2c1ncn2[C@@H]1O[C@H](CSCCOc2ccc(-c3cccc(O)c3)cc2)[C@@H](O)[C@H]1O` [Compound 14f] here?
Answer: 13%

Question: With `Nc1ncnc2c1ncn2[C@@H]1O[C@H](CSCCOc2ccc(-c3ccccc3O)cc2)[C@@H](O)[C@H]1O` [Compound 14g] as the compound, how does the inhibition at 10 µM read?
Answer: 10%

Question: How did the inhibition at 10 µM turn out when `Nc1ncnc2c1ncn2[C@@H]1O[C@H](CSCCOc2ccc(-c3ccncc3)cc2)[C@@H](O)[C@H]1O` [Compound 14h] was run?
Answer: 6%

Molecular target: PRMT8 (Homo sapiens, UniProt Q9NR22)
Sequence (Q9NR22 whole entry, species assumed): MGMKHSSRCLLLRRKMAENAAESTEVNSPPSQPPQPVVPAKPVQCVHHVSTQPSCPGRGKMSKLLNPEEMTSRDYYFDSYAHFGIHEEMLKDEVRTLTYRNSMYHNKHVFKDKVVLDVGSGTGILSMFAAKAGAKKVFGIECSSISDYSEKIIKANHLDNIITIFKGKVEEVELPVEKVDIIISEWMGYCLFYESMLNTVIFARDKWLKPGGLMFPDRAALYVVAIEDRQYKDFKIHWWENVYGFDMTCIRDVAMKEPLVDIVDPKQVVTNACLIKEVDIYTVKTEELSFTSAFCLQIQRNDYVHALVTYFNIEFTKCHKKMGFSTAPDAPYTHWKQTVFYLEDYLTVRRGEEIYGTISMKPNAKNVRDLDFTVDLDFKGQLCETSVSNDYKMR
Assay: radioactive assay (Reaction Biology Corp.), inhibition of PRMT8
Assay type: biochemical
Experimental: as §3, §4

Question: For `Nc1ncnc2c1ncn2[C@@H]1O[C@H](CSCCOc2ccc(-c3ccc(F)c(O)c3)cc2)[C@@H](O)[C@H]1O` [Compound 14d], which inhibition at 10 µM is on record?
Answer: 42%

Question: How did the inhibition at 10 µM turn out when `Nc1ncnc2c1ncn2[C@@H]1O[C@H](CSCCOc2ccc(-c3cncnc3)cc2)[C@@H](O)[C@H]1O` [Compound 14e] was run?
Answer: 28%

Question: `Nc1ncnc2c1ncn2[C@@H]1O[C@H](CSCCOc2ccc(-c3cccc(O)c3)cc2)[C@@H](O)[C@H]1O` [Compound 14f] was tested. Which inhibition at 10 µM did it give?
Answer: 40%

Question: `Nc1ncnc2c1ncn2[C@@H]1O[C@H](CSCCOc2ccc(-c3ccccc3O)cc2)[C@@H](O)[C@H]1O` [Compound 14g] was tested. Which inhibition at 10 µM did it give?
Answer: 39%

Question: Which inhibition at 10 µM does the source give for `Nc1ncnc2c1ncn2[C@@H]1O[C@H](CSCCOc2ccc(-c3ccncc3)cc2)[C@@H](O)[C@H]1O` [Compound 14h] here?
Answer: 15%

Molecular target: PRMT3 (Homo sapiens, UniProt O60678)
Sequence (O60678 211-531): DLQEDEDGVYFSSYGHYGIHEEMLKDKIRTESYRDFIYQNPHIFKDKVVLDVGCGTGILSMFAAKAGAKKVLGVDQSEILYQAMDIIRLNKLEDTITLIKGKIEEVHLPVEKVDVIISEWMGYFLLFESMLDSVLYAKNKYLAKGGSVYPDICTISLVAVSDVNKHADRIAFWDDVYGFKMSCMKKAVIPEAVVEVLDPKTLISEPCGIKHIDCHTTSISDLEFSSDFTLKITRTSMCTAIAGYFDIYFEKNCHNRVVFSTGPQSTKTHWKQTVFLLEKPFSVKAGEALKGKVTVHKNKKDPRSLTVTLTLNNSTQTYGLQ
Assay: SAHH-coupled fluorescence assay, inhibition of PRMT3
Assay type: biochemical
Design: PRMT3 (residues 211-531) was cloned into the pET28a-MHL expression vector; tag of the pET28a-MHL vector (not described); made in house; host or cells: Escherichia coli BL21(DE3)
Experimental: as §1
(§5) The PRMT3 methylation assay was performed under the following conditions in a final well volume of 100 μL: 20 mM Tris (pH=7.5), 0.01% Triton X-100, 5 μM SAHH, 0.25 μM PRMT3, 30 μM AdoMet, and 15 μM ThioGlo4. […] Fluorescence was monitored on a BMG CLARIOstar microplate reader with excitation 380 nm and emission 505 nm. Data were processed by using GraphPad Prism software 8.0. All experiments were performed in duplicate.
as §3
as §5, with “8.0.” for “8.0. All experiments were performed in duplicate.”

Question: Which inhibition at 10 µM does the source give for `Nc1ncnc2c1ncn2[C@@H]1O[C@H](CSCCOc2ccc(-c3ccc(F)c(O)c3)cc2)[C@@H](O)[C@H]1O` [Compound 14d] here?
Answer: 3%

Question: How did the inhibition at 10 µM turn out when `Nc1ncnc2c1ncn2[C@@H]1O[C@H](CSCCOc2ccc(-c3cncnc3)cc2)[C@@H](O)[C@H]1O` [Compound 14e] was run?
Answer: 16%

Question: How did the inhibition at 10 µM turn out when `Nc1ncnc2c1ncn2[C@@H]1O[C@H](CSCCOc2ccc(-c3cccc(O)c3)cc2)[C@@H](O)[C@H]1O` [Compound 14f] was run?
Answer: 5%

Question: For `Nc1ncnc2c1ncn2[C@@H]1O[C@H](CSCCOc2ccc(-c3ccccc3O)cc2)[C@@H](O)[C@H]1O` [Compound 14g], which inhibition at 10 µM is on record?
Answer: 5%

Question: With `Nc1ncnc2c1ncn2[C@@H]1O[C@H](CSCCOc2ccc(-c3ccncc3)cc2)[C@@H](O)[C@H]1O` [Compound 14h] as the compound, how does the inhibition at 10 µM read?
Answer: 8%
